Results from patent US8648180B2, “Compound Smilaxchinoside F” (Guilin Sanjin Pharmaceuticals Co., Ltd., priority 2010, dated 2014).
Several values for one entry are separate records, joined by “and”; a condition that tells them apart may be missing. Equal values may be shown once.

System: Human lung cancer cells Spc-A1
Assay: MTT method, anti-proliferation on lung cancer cell line SPC-A1
Assay type: cell-based
Details: for Inhibition rate (%) / OD value: 5Fu 10^−4 mol/L; for OD value: A at 490 nm, x ± s, n = 5
Procedure: Human lung cancer cells Spc-A1 (hereinafter referred to as SPC), is purchased from Wuhan Cell Collection Center (cell bank of China Center for Type CultureCollection).
The tumor cells are placed in the RPMI-1640 complete medium including 10% fetal calf serum and are cultured at 37° C. under 5% CO2 incubator. When the cell growth reaches the logarithmic phase (approximately 80% integration), cells are subcultured. The experiments are divided into negative control group (RPMI-1640), positive drug group (5Fu, 10^−4 mol·L^−1) and reagent group of Smilaxchinoside F at different concentrations, which are prepared by Guilin Sanjin Pharmaceutical Co., Ltd, in accordance with example 1 of the present invention.
5×10^7·L^−1 cells at logarithmic phase are seeded in 96-well plates, each well 180 μL. After culturing for 24 h, medicine is added, each well 20 μL, five parallel wells for each group. On 4 hours before the end of culture, 20 μL of 5 g·L^−1 MTT solution is added to the each well. After the end of the culture (48 h and 72 h), the supernatant is discarded. 150 μL of DMSO is added to each wells; the optical density (A value) of each well is detected by a microplate reader at 490 nm; the tumor suppression percentage is calculated.

`O=c1[nH]cc(F)c(=O)[nH]1` [5Fu] was tested, and the “Effect on SPA (lung cancer) cell proliferation in vitro, in words” value was “significant anti-tumor effect”, the “Inhibition rate (%)” value (48 h) was 39.4% and 39.37% and the OD value (48 h) was 0.372 ± 0.031. The “Inhibition rate (%)” value (72 h) was 59.6% and 59.61% and the OD value (72 h) was 0.295 ± 0.026.
